Several values for one entry are separate records, joined by “and”; a condition that tells them apart may be missing. Identical values can stand only once. Toxic doses and inconclusive results are not listed. Cut-off read from the data, not from the text of the source: active = T/C of 150% or more; inactive = T/C below 125%.
Tested on: L1210 leukemia ip in BDF1 mice, survival T/C
Assay: NCI In Vivo Anticancer Drug Screen. Data for tumor model L1210 Leukemia (intraperitoneal) in B6D2F1 (BDF1) mice
Settings: endpoint: mean survival time, higher = longer survival
Summary of the method: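 Survival endpoint. Drug-treated group vs vehicle group, expressed as T divided by C. Tumor passaged by transplantation.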

[1] = dose: 100.0 mg/kg/injection, schedule: Q01DX009 (ip), vehicle: Klucel (hydroxypropylcellulose) (HPC)
[2] = dose: 200.0 mg/kg/injection, schedule: Q01DX009 (ip), vehicle: Klucel (hydroxypropylcellulose) (HPC)
[3] = dose: 400.0 mg/kg/injection, schedule: Q01DX009 (ip), vehicle: Klucel (hydroxypropylcellulose) (HPC)
[4] = dose: 100.0 mg/kg/injection, schedule: Q04DX002 (ip), vehicle: Klucel (hydroxypropylcellulose) (HPC)
[5] = dose: 200.0 mg/kg/injection, schedule: Q04DX002 (ip), vehicle: Klucel (hydroxypropylcellulose) (HPC)
[6] = dose: 100.0 mg/kg/injection, schedule: Q04DX003 (ip), vehicle: saline with Tween-80
[7] = dose: 200.0 mg/kg/injection, schedule: Q04DX003 (ip), vehicle: saline with Tween-80
[8] = dose: 400.0 mg/kg/injection, schedule: Q04DX003 (ip), vehicle: saline with Tween-80
[9] = dose: 100.0 mg/kg/injection, schedule: Q04DX003 (ip), vehicle: Klucel (hydroxypropylcellulose) (HPC)
[10] = dose: 200.0 mg/kg/injection, schedule: Q04DX003 (ip), vehicle: Klucel (hydroxypropylcellulose) (HPC)
[11] = dose: 400.0 mg/kg/injection, schedule: Q04DX003 (ip), vehicle: Klucel (hydroxypropylcellulose) (HPC)
[12] = dose: 100.0 mg/kg/injection, schedule: Q01DX001 (ip), vehicle: saline
[13] = dose: 200.0 mg/kg/injection, schedule: Q01DX001 (ip), vehicle: saline
[14] = dose: 400.0 mg/kg/injection, schedule: Q01DX001 (ip), vehicle: saline
[15] = dose: 100.0 mg/kg/injection, schedule: Q01DX009 (ip), vehicle: saline with Tween-80
[16] = dose: 200.0 mg/kg/injection, schedule: Q01DX009 (ip), vehicle: saline with Tween-80
[17] = dose: 20.0 mg/kg/injection, schedule: Q04DX003 (ip), vehicle: Klucel (hydroxypropylcellulose) (HPC)
[18] = dose: 40.0 mg/kg/injection, schedule: Q04DX003 (ip), vehicle: Klucel (hydroxypropylcellulose) (HPC)
[19] = dose: 80.0 mg/kg/injection, schedule: Q04DX003 (ip), vehicle: Klucel (hydroxypropylcellulose) (HPC)
[20] = dose: 400.0 mg/kg/injection, schedule: Q01DX009 (ip), vehicle: saline with Tween-80

Measured: T/C

c1ccc2c3csccc-3nc2c1
inactive: dose: 12.5 mg/kg/injection, schedule: Q01DX009 (ip), vehicle: saline 92 % of control | dose: 25.0 mg/kg/injection, schedule: Q01DX009 (ip), vehicle: saline 98 % of control | dose: 50.0 mg/kg/injection, schedule: Q01DX009 (ip), vehicle: Klucel (hydroxypropylcellulose) (HPC) 94 % of control | dose: 50.0 mg/kg/injection, schedule: Q01DX009 (ip), vehicle: saline 97 % of control | [1] 92 % of control | dose: 100.0 mg/kg/injection, schedule: Q04DX003 (ip), vehicle: acetone 94 % of control and 98 % of control | [2] 92 % of control | dose: 200.0 mg/kg/injection, schedule: Q04DX003 (ip), vehicle: acetone 97 % of control

COc1cc(N)c(CC2c3cc(OC)c(OC)cc3CCN2C)cc1OC (configuration not stated)
inactive: dose: 75.0 mg/kg/injection, schedule: Q01DX001 (ip), vehicle: carboxymethylcellulose (CMC) 95 % of control | dose: 150.0 mg/kg/injection, schedule: Q01DX001 (ip), vehicle: carboxymethylcellulose (CMC) 95 % of control

Cc1ccc(S(=O)(=O)/N=S(/C)CC/S(C)=N/S(=O)(=O)c2ccc(C)cc2)cc1 (configuration not stated)
inactive: [1] 102 % of control | [2] 105 % of control | [3] 100 % of control

CSC1=NCCCC1
inactive: dose: 75.0 mg/kg/injection, schedule: Q01DX001 (ip), vehicle: saline 105 % of control | dose: 150.0 mg/kg/injection, schedule: Q01DX001 (ip), vehicle: saline 104 % of control

O=C(Nc1ccc(Cl)cc1Cl)P(=O)(O)c1ccccc1
inactive: [1] 92 % of control | [4] 101 % of control | [2] 103 % of control | [5] 90 % of control | [3] 92 % of control

O=C(O)CNCc1ccc(Cl)c(Cl)c1
inactive: dose: 75.0 mg/kg/injection, schedule: Q01DX009 (ip), vehicle: saline 100 % of control | dose: 100.0 mg/kg/injection, schedule: Q01DX009 (ip), vehicle: saline 97 % of control and 120 % of control | dose: 100.0 mg/kg/injection, schedule: Q04DX003 (ip), vehicle: saline 96 % of control | dose: 150.0 mg/kg/injection, schedule: Q01DX009 (ip), vehicle: saline 99 % of control | dose: 200.0 mg/kg/injection, schedule: Q01DX009 (ip), vehicle: saline 111 % of control | dose: 200.0 mg/kg/injection, schedule: Q04DX003 (ip), vehicle: saline 102 % of control | dose: 400.0 mg/kg/injection, schedule: Q01DX009 (ip), vehicle: saline 95 % of control | dose: 400.0 mg/kg/injection, schedule: Q04DX003 (ip), vehicle: saline 90 % of control

CC(=O)Nc1ccc2ncccc2c1[N+](=O)[O-]
inactive: dose: 100.0 mg/kg/injection, schedule: Q01DX001 (ip), vehicle: other 102 % of control | dose: 200.0 mg/kg/injection, schedule: Q01DX001 (ip), vehicle: other 100 % of control | dose: 400.0 mg/kg/injection, schedule: Q01DX001 (ip), vehicle: other 100 % of control

Nc1nc(N)c(CCCc2ccccc2)c(N)n1
inactive: [4] 87 % of control

O=C(c1ccccc1)c1ccc(C(=O)c2ccccc2)c2c1C(=O)c1ccccc1C2=O
inactive: [6] 92 % of control | [7] 95 % of control | [8] 98 % of control

O=P(NC12CC3CC(CC(C3)C1)C2)(c1ccccc1)N1CC1 (configuration not stated)
inactive: [9] 86 % of control | [10] 88 % of control | [11] 89 % of control

Cc1ccc([N+](=O)[O-])o1
inactive: [6] 91 % of control | [7] 87 % of control

O=C(/C=C/c1ccc(O)cc1)c1ccc(Cl)cc1
inactive: [12] 98 % of control | [13] 87 % of control | [14] 90 % of control

CCOC(=O)c1cnc(C)nc1Nc1ccccc1F
inactive: [9] 105 % of control | [10] 104 % of control

Nc1c([N+](=O)[O-])cc(Cl)c(Cl)c1F
inactive: [4] 101 % of control | [5] 96 % of control | dose: 400.0 mg/kg/injection, schedule: Q04DX002 (ip), vehicle: Klucel (hydroxypropylcellulose) (HPC) 96 % of control

CCOC(=O)/C(=C\c1cccc2ccccc12)c1ccncc1
inactive: dose: 100.0 mg/kg/injection, schedule: Q01DX001 (ip), vehicle: saline with Tween-80 89 % of control | [15] 98 % of control | dose: 200.0 mg/kg/injection, schedule: Q01DX001 (ip), vehicle: saline with Tween-80 93 % of control | [16] 100 % of control | dose: 400.0 mg/kg/injection, schedule: Q01DX001 (ip), vehicle: saline with Tween-80 96 % of control

N#Cc1ccc(Nc2ccc(C#N)cc2)cc1
inactive: dose: 25.0 mg/kg/injection, schedule: Q01DX009 (ip), vehicle: saline with Tween-80 105 % of control | dose: 50.0 mg/kg/injection, schedule: Q01DX009 (ip), vehicle: saline with Tween-80 94 % of control | [15] 94 % of control | [6] 96 % of control | [7] 96 % of control | [8] 91 % of control

COc1cccc(OC)c1CCO
inactive: dose: 50.0 mg/kg/injection, schedule: Q01DX001 (ip), vehicle: carboxymethylcellulose (CMC) 88 % of control | dose: 100.0 mg/kg/injection, schedule: Q01DX001 (ip), vehicle: carboxymethylcellulose (CMC) 102 % of control | dose: 200.0 mg/kg/injection, schedule: Q01DX001 (ip), vehicle: carboxymethylcellulose (CMC) 88 % of control | dose: 400.0 mg/kg/injection, schedule: Q01DX001 (ip), vehicle: carboxymethylcellulose (CMC) 100 % of control

Cc1cc(C)c(-n2c(C)cc(C(=O)O)c2C)c(C)c1C(=O)O
inactive: dose: 100.0 mg/kg/injection, schedule: Q01DX001 (ip), vehicle: alcohol 102 % of control | dose: 200.0 mg/kg/injection, schedule: Q01DX001 (ip), vehicle: alcohol 96 % of control | dose: 400.0 mg/kg/injection, schedule: Q01DX001 (ip), vehicle: alcohol 97 % of control

O=P(c1ccccc1)(c1ccccc1)C1(O)CCCCC1Cl (configuration not stated)
inactive: [12] 105 % of control | [13] 96 % of control | [14] 100 % of control

CC(C)(C)COC(=O)CCN1CC1
inactive: dose: 20.0 mg/kg/injection, schedule: Q01DX009 (ip), vehicle: Klucel (hydroxypropylcellulose) (HPC) 119 % of control | [17] 103 % of control | dose: 40.0 mg/kg/injection, schedule: Q01DX009 (ip), vehicle: Klucel (hydroxypropylcellulose) (HPC) 97 % of control | [18] 114 % of control | [19] 101 % of control | [9] 110 % of control

Cc1ccc(S(=O)(=O)N2CCC(C(=O)O)(c3ccccc3)CC2)cc1
inactive: [15] 117 % of control | [16] 101 % of control | [20] 95 % of control

CCOC(=O)CCC(NC(=O)c1ccc(NC)c([N+](=O)[O-])c1)C(=O)OCC (configuration not stated)
inactive: [9] 98 % of control | [10] 100 % of control | [11] 96 % of control

CCOCCN1CCN(CCCN2c3ccccc3Sc3ccc(C(F)(F)F)cc32)CC1
inactive: dose: 0.19 mg/kg/injection, schedule: Q01DX009 (ip), vehicle: water 95 % of control | dose: 0.39 mg/kg/injection, schedule: Q01DX009 (ip), vehicle: water 98 % of control | dose: 0.78 mg/kg/injection, schedule: Q01DX009 (ip), vehicle: water 111 % of control | dose: 1.56 mg/kg/injection, schedule: Q01DX009 (ip), vehicle: water 110 % of control | dose: 22.0 mg/kg/injection, schedule: Q04DX003 (ip), vehicle: other 122 % of control | dose: 100.0 mg/kg/injection, schedule: Q04DX003 (ip), vehicle: water 98 % of control

O=C(NCCBr)NC1CC1c1ccccc1 (configuration not stated)
inactive: [17] 117 % of control | [18] 101 % of control | [19] 93 % of control | [9] 118 % of control

O=C1C(Br)=C(Br)C(=O)C1(Br)Br
inactive: [6] 87 % of control | [7] 96 % of control | [8] 94 % of control

Cc1nn(C)c2ccc([N+](=O)[O-])cc12
inactive: [1] 91 % of control | [2] 102 % of control | [10] 97 % of control | [3] 96 % of control | [11] 98 % of control

O=[N+]([O-])c1cc(C(F)(F)F)cc([N+](=O)[O-])c1N/N=C/c1ccccc1Cl
inactive: [15] 91 % of control | [16] 95 % of control | [20] 90 % of control

From PubChem BioAssay AID248 (DTP/NCI, 2004)
